Assays:
Format in all cases: functional, cell-based
KB = assay: Antiproliferative activity against human KB cells after 3 days by SRB assay; conditions: 72 h
A549 = assay: Antiproliferative activity against human A549 cells after 3 days by SRB assay; conditions: A549, 72 h
[1] = Antiproliferative activity against human KBVIN cells after 3 days by SRB assay; conditions: 72 h
MDA-MB-231 = assay: Antiproliferative activity against human MDA-MB-231 cells after 3 days by SRB assay; conditions: MDA-MB-231, 72 h
MCF7 = assay: Antiproliferative activity against human MCF7 cells after 3 days by SRB assay; conditions: MCF7, 72 h

Row | Compound | IC50 (KB) | IC50 (A549) | IC50 [1] | IC50 (MDA-MB-231) | IC50 (MCF7)
1 | O=C1CCCC2=C3CCCN4CCC[C@@H](CN12)[C@@H]34 | > 40 µM | > 40 µM | > 40 µM | > 40 µM | 
2 | O=C1CCC[C@@H]2[C@H]3CCCN4CCC[C@@H](CN12)[C@@H]34 [MATRINE] | > 40 µM | > 40 µM | > 40 µM | > 40 µM | 
3 | CN(C)c1ccc(/C=C2\CC[C@@H]3[C@H]4CCCN5CCC[C@H](CN3C2=O)[C@@H]45)cc1 | > 40 µM | > 40 µM | > 40 µM | > 40 µM | 
4 | CCOc1cc(/C=C2\CC[C@@H]3[C@H]4CCCN5CCC[C@H](CN3C2=O)[C@@H]45)ccc1OCc1ccccc1 | 20.7 µM | 17.6 µM | 21.6 µM | 21.9 µM | 20.5 µM
5 | CC(=O)O[C@H]1C(=O)[C@@]2(C)[C@H]([C@H](OC(=O)c3ccccc3)[C@]3(O)C[C@H](OC(=O)[C@H](O)[C@@H](NC(=O)c4ccccc4)c4ccccc4)C(C)=C1C3(C)C)[C@]1(OC(C)=O)CO[C@@H]1C[C@@H]2O [PACLITAXEL] | 4e-05 µM | 3e-05 µM | 2.6 µM | 0.018 µM | 
6 | O=C1CCC[C@@H]2[C@H]3CCCN4CCC[C@H](CN12)[C@H]34 | > 40 µM | > 40 µM | > 40 µM | > 40 µM | 
7 | O=C1CCC[C@@H]2[C@@H]3C[C@@H](CN12)[C@@H]1CCCCN1C3 | > 40 µM | > 40 µM | > 40 µM | > 40 µM | 
8 | COc1cc(/C=C2\CC[C@@H]3[C@H]4CCCN5CCC[C@H](CN3C2=O)[C@@H]45)ccc1C | 58 µM | 42 µM | 72 µM | 45 µM | 54 µM
9 | O=c1cccc2n1C[C@@H]1CCCN3CCC[C@H]2[C@H]13 | > 40 µM | > 40 µM | > 40 µM | > 40 µM | 
10 | COc1cccc(/C=C2\CC[C@@H]3[C@H]4CCCN5CCC[C@H](CN3C2=O)[C@@H]45)c1OC | 71 µM | > 80 µM | > 80 µM | 68 µM | > 80 µM
11 | COc1ccc(/C=C2\CC[C@@H]3[C@H]4CCCN5CCC[C@H](CN3C2=O)[C@@H]45)c(C)c1 | 74 µM | 74 µM | > 80 µM | 67 µM | > 80 µM
12 | O=C1C=CC[C@@H]2[C@H]3CCCN4CCC[C@@H](CN12)[C@@H]34 [SOPHOCARPINE] | > 40 µM | > 40 µM | > 40 µM | > 40 µM | 
13 | O[C@@H]1[C@H]2[C@H](O)CCCN2C[C@@H]1O | > 40 µM | > 40 µM | > 40 µM | > 40 µM | 
14 | O=C1CCC[C@@H]2[C@H]3CCCN4CCC[C@H](CN12)[C@@H]34 [SOPHORIDINE] | > 80 µM | > 80 µM | > 80 µM | > 80 µM | > 80 µM
15 | O=C1/C(=C/c2ccc3c(c2)OCO3)CC[C@@H]2[C@H]3CCCN4CCC[C@H](CN12)[C@@H]34 | > 40 µM | > 40 µM | > 40 µM | > 40 µM | 
16 | CCOc1cc(/C=C2\CC[C@@H]3[C@H]4CCCN5CCC[C@H](CN3C2=O)[C@@H]45)ccc1OCOC | > 40 µM | > 40 µM | > 40 µM | > 40 µM | 
17 | COc1cccc(OC)c1/C=C1\CC[C@@H]2[C@H]3CCCN4CCC[C@H](CN2C1=O)[C@@H]34 | > 40 µM | > 40 µM | > 40 µM | > 40 µM | 

Source: ChEMBL document CHEMBL3763014, “Alkaloids from Oxytropis ochrocephala and antiproliferative activity of sophoridine derivatives against cancer cell lines” (Bioorg Med Chem Lett, 2016)
